For 15 compounds, IC50 results are on record in patent US9999622B2, “Pyrazolothiazole compound and medicine comprising same” (NIPPON SHINYAKU CO., LTD., priority 2014, dated 2018).

Common to all, as to format: biochemical
For one assay, the target named is T1, JAK1 (Homo sapiens, UniProt P23458).
T1 construct: purchased Carna Biosciences, Inc
Briefly: JAK tyrosine kinase inhibitory activity in the presence of 1 mM ATP (ELISA), JAK1. As to the method: (§1) 1. Preparation of Test Compound
(§2) The test compound was dissolved in dimethyl sulfoxide (DMSO) to 10 mM and further diluted with DMSO to the concentrations of 1000, 100, 10, 1, 0.1 and 0.01 μM, respectively. For JAK1, these solutions of the test compound at the six concentrations 10 mM, 1000 μM, 100 μM, 10 μM, 1 μM and 0.1 μM were used. For JAK2 and JAK3, these solutions of the test compound at the six concentrations 1000 μM, 100 μM, 10 μM, 1 μM, 0.1 μM and 0.01 μM were used. The test compound solutions were diluted further to 20-fold with an assay buffer to obtain a sample solution. 15 mM Tris-HCl (pH7.5), 0.01 (v/v) % Tween-20 and 1 mM dithiothreitol were used as an assay buffer. DMSO was diluted to 20-fold with the assay buffer and was used as a negative control.
(§3) 2. JAK Tyrosine Kinase Inhibitory Activity in the Presence of 1 mM Atp
(§4) The activity was determined by ELISA method. Each of the sample solutions was added to a streptavidine coated 96-well plate (DELFIA Strip Plate 8×12 well, PerkinElmer) at 10 μL/well (n=2). […] Finally, JAK tyrosine kinase (Carna Biosciences, Inc.), which was previously diluted with the assay buffer to 7.5 nM for JAK1 and 0.75 nM for JAK2 and JAK3, was added to the plate at 20 μL/well, and the plate was incubated at 30° C. for 1 h. The plate was washed four times with buffer (50 mM Tris-HCl (pH 7.5), 150 mM NaCl, 0.02 (v/v) % Tween-20). A blocking buffer (0.1% Bovine Serum Albumin, 50 mM Tris-HCl (pH 7.5), 150 mM NaCl, 0.02 (v/v) % Tween-20) was added to the plate at 150 μL/well and the plate was blocked at 30° C. for 1 h. The blocking buffer was removed, and a horse radish peroxidase-labeled anti-phosphorylated tyrosine antibody (BD Biosciences, Inc.) (diluted to 10000-fold with the blocking buffer) was added to the plate at 100 μL/well, and the plate was incubated at 30° C. for 30 min. The plate was washed with the washing buffer four times, and 3,3′,5,5′-tetramethylbenizidine solution (Nacalai Tesque) was added to the plate at 100 μL/well to develop the color for 10 minutes. To the plate was added 0.1 M sulfuric acid at 100 μL/well to stop the reaction. The absorbance at 450 nm was measured using a microplate reader (BIO-RAD).
(§5) 3. Analysis of the Results

Another assay deals with T2, JAK2 (Homo sapiens, UniProt O60674).
T2 construct: purchased Carna Biosciences, Inc
T2 sequence (O60674 whole entry): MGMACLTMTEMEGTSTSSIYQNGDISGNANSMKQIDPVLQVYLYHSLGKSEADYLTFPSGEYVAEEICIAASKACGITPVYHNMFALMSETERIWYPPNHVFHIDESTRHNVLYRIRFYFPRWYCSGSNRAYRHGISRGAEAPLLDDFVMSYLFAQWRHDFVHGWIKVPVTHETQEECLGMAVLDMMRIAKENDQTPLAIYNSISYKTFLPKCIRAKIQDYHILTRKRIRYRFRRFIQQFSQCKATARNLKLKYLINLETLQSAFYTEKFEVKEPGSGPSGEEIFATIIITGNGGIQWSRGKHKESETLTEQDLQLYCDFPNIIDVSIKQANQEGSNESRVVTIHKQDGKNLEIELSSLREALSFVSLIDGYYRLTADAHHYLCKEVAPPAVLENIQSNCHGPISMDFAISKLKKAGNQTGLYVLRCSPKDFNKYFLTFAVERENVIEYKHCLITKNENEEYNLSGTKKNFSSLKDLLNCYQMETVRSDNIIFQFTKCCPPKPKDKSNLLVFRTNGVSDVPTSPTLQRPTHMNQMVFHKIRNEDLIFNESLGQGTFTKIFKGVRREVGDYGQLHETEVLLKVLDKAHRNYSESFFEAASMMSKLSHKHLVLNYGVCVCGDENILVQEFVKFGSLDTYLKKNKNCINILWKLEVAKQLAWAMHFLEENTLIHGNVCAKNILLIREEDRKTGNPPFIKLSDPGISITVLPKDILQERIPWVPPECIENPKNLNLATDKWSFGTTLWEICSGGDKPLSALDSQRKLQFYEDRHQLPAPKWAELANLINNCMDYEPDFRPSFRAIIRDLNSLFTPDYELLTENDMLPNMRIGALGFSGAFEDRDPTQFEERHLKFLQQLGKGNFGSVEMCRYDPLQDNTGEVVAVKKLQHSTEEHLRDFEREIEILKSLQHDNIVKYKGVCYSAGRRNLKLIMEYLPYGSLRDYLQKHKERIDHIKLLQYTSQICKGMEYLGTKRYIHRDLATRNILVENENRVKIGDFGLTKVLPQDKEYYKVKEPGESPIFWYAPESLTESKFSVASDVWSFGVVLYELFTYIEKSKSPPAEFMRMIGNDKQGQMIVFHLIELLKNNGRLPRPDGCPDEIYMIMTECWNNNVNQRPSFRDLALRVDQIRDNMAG
In words: JAK tyrosine kinase inhibitory activity in the presence of 1 mM ATP (ELISA), JAK2. As to the method: as §1, §2, §3, §4, §5
Background: An ELISA detects its analyte on a solid surface through an enzyme-linked reagent.

The target of the next assay is T3, JAK3 (Homo sapiens, UniProt P52333).
T3 construct: purchased Carna Biosciences, Inc
T3 sequence (P52333 1-1124): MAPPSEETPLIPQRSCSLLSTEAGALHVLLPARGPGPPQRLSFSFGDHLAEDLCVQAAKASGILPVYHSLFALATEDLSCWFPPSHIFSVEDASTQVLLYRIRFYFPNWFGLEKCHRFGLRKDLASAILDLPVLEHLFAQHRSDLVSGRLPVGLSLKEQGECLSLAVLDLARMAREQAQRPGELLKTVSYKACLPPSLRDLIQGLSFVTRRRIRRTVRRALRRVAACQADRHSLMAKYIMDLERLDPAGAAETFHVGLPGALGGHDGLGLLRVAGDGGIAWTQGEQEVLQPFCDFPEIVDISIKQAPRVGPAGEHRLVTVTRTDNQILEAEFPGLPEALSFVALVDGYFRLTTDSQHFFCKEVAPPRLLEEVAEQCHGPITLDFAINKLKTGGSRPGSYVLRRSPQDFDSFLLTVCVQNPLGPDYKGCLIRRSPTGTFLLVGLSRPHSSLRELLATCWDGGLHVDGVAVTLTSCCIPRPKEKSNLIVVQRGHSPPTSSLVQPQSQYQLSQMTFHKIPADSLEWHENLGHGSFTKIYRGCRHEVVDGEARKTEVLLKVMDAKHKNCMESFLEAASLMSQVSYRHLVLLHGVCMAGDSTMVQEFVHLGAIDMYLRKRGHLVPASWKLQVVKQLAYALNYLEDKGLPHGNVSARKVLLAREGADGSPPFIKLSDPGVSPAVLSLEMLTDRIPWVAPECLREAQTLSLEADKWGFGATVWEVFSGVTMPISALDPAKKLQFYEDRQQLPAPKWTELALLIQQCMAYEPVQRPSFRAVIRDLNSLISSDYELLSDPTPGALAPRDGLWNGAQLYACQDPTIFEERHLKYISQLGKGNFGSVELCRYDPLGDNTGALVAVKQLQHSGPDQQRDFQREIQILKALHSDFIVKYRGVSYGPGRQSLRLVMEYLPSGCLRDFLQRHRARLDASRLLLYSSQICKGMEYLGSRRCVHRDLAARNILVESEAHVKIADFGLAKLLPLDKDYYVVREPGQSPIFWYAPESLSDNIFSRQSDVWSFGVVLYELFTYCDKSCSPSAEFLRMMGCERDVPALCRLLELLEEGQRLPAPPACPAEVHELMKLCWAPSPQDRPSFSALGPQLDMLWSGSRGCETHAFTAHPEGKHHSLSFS
Briefly: JAK tyrosine kinase inhibitory activity in the presence of 1 mM ATP (ELISA), JAK3. As to the method: as §1, §2, §3, §4, §5

Molecules are shown by their SMILES. A value given as a limit tells only on which side of the number the result lay.

T1 sequence (P23458 whole entry): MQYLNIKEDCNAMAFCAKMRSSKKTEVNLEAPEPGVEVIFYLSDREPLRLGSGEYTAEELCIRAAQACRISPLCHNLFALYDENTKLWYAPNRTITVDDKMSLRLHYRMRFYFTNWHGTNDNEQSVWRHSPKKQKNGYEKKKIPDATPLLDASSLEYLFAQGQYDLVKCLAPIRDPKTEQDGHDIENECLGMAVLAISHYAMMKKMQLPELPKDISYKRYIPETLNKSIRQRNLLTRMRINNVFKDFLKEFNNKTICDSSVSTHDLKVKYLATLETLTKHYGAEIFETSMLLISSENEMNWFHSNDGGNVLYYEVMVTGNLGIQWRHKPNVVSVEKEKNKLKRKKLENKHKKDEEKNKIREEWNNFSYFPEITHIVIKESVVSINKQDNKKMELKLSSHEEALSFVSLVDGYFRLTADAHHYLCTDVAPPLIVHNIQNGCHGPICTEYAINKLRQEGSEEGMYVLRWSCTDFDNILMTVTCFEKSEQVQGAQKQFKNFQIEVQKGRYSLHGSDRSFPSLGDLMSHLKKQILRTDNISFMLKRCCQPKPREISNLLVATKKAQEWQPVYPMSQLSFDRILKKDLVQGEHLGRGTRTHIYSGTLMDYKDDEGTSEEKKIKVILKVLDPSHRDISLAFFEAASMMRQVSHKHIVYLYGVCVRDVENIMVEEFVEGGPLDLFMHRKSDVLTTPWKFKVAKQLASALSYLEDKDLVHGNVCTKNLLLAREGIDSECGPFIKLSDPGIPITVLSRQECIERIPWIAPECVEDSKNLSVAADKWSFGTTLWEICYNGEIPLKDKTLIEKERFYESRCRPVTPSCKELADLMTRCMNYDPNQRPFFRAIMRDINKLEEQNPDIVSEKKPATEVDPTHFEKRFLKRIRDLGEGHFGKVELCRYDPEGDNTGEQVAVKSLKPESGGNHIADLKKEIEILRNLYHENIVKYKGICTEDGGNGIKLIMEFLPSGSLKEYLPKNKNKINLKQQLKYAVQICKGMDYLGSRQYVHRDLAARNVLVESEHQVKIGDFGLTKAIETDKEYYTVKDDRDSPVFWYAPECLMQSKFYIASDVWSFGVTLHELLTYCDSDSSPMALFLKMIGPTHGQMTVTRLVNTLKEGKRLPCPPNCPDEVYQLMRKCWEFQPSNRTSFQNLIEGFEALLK

Usually IC50 stands for the point on the concentration scale where inhibition reaches its midpoint. For `COC(=O)NC1CCN(C(=O)c2cc(OC3CCC3)nc(-c3cnn4ccsc34)n2)CC1` [Example 65, Methyl (1-{[6-(cyclobutyloxy)-2-(pyrazolo[5,1-b][1,3]thiazol-7-yl)pyrimidin-4-yl]carbonyl}piperidin-4-yl)carbamate], the IC50 on JAK1 is 130 nM; on JAK2, 3100 nM.
Regarding `COC(=O)NC1CCN(C(=O)c2cc(N[C@H](CO)C(C)(C)C)nc(-c3cnn4ccsc34)n2)CC1` [Example 63, Methyl (1-{[6-{[(2S)-1-hydroxy-3,3-dimethylbutan-2-yl]amino}-2-(pyrazolo[5,1-b][1,3]thiazol-7-yl)pyrimidin-4-yl]carbonyl}piperidin-4-yl)carbamate], the IC50 was 180 nM on JAK1 and 7300 nM on JAK2.
Take `CCCC(=O)N1CC[C@@H](Nc2cc(C(=O)N3CCC(NC(=O)OC)CC3)nc(-c3cnn4ccsc34)n2)C1` [Example 207, Methyl 1-[6-[(3R)-1-butanoylpyrrolidin-3-yl]amino-2-(pyrazolo[5,1-b][1,3]thiazol-7-yl)pyrimidine-4-carbonyl]piperidin-4-ylcarbamate]: the figures for the IC50 at JAK1, at JAK3 and at JAK2 were 410 nM, above 10000 nM and above 10000 nM, respectively.
Take `COC(=O)NC1CCN(C(=O)c2cc(N[C@H](C)C(C)(C)C)nc(-c3cnn4ccsc34)n2)CC1` [Example 39, Methyl (1-{[6-{[(2R)-3,3-dimethylbutan-2-yl]amino}-2-(pyrazolo[5,1-b][1,3]thiazol-7-yl)pyrimidin-4-yl]carbonyl}piperidin-4-yl)carbamate]: the IC50 on JAK1 was 140 nM; on JAK3, 2900 nM; on JAK2, 1300 nM.
Turning to `CC(C)(C)CNc1cc(C(=O)N2CCC(NC(=O)C3CC3)CC2)nc(-c2cnn3ccsc23)n1` [Example 15, N-[1-({6-[(2,2-Dimethylpropyl)amino]-2-(pyrazolo[5,1-b][1,3]thiazol-7-yl)pyrimidin-4-yl}carbonyl)piperidin-4-yl]cyclopropanecarboxamide], the IC50 turned out to be 110 nM at JAK1, 7200 nM at JAK3 and 2500 nM on JAK2.
As for `C[C@H](Nc1cc(C(=O)N2CCC(NS(C)(=O)=O)CC2)nc(-c2cnn3ccsc23)n1)C1CC1` [Example 66, N-(1-{[6-{[(1S)-1-Cyclopropylethyl]amino}-2-(pyrazolo[5,1-b][1,3]thiazol-7-yl)pyrimidin-4-yl]carbonyl}piperidin-4-yl)methanesulfonamide], the IC50 amounted to 110 nM at JAK1, 2400 nM at JAK3 and 620 nM at JAK2.
On the same counts, the results for `CC(C)(C)OC(=O)N1CCC(Nc2cc(C(=O)N3CCC(NC(=O)C4CC4)CC3)nc(-c3cnn4ccsc34)n2)CC1` [Example 171, Tert-butyl 4-[6-4-[(cyclopropanecarbonyl)amino]piperidine-1-carbonyl-2-(pyrazolo[5,1-b][1,3]thiazol-7-yl)pyrimidin-4-yl]aminopiperidine-1-carboxylate] are 850 nM, above 10000 nM and above 10000 nM.
For the compound `C[C@H](Nc1cc(C(=O)N2CCC(NC(=O)C3CCCCC3)CC2)nc(-c2cnn3ccsc23)n1)C1CC1` [Example 167, N-1-[6-[(1S)-1-cyclopropylethyl]amino-2-(pyrazolo[5,1-b][1,3]thiazol-7-yl)pyrimidine-4-carbonyl]piperidin-4-ylcyclohexanecarboxamide], the IC50 on JAK1 worked out at 230 nM; on JAK3, 1100 nM; at JAK2, 9500 nM.
`Cc1ccccc1C(=O)NC1CCN(C(=O)c2cc(N[C@@H](C)C3CC3)nc(-c3cnn4ccsc34)n2)CC1` [Example 184, N-1-[6-[(1S)-1-cyclopropylethyl]amino-2-(pyrazolo[5,1-b][1,3]thiazol-7-yl)pyrimidine-4-carbonyl]piperidin-4-yl-2-methylbenzamide]: the IC50 is 62 nM on JAK1, 470 nM at JAK3 and above 10000 nM at JAK2.
On the same counts, the results for `O=C(NC1CCN(C(=O)c2cc(OC3CCC3)nc(-c3cnn4ccsc34)n2)CC1)C1CC1` [Example 45, N-(1-{[6-(Cyclobutyloxy)-2-(pyrazolo[5,1-b][1,3]thiazol-7-yl)pyrimidin-4-yl]carbonyl}piperidin-4-yl)cyclopropanecarboxamide] are 310 nM, above 10000 nM and 5700 nM.
For the compound `CCCOC(=O)NC1CCN(C(=O)c2cc(N[C@H](C)C(C)(C)C)nc(-c3cnn4ccsc34)n2)CC1` [Example 85, Propyl (1-{[6-{[(2R)-3,3-dimethylbutan-2-yl]amino}-2-(pyrazolo[5,1-b][1,3]thiazol-7-yl)pyrimidin-4-yl]carbonyl}piperidin-4-yl)carbamate], the IC50 came out at 330 nM on JAK1, 2300 nM at JAK3 and 2200 nM on JAK2.
For `C[C@@H](Nc1cc(C(=O)N2CCC(NC(=O)N(C)C)CC2)nc(-c2cnn3ccsc23)n1)C1CC1` [Example 138, 3-(1-{[6-{[(1R)-1-Cyclopropylethyl]amino}-2-(pyrazolo[5,1-b][1,3]thiazol-7-yl)pyrimidin-4-yl]carbonyl}piperidin-4-yl)-1,1-dimethylurea], in that order: 650 nM, 4300 nM and 2000 nM.
On the same counts, the results for `CC(C)(C)CNc1cc(C(=O)N2CCC(O)CC2)nc(-c2cnn3ccsc23)n1` [Example 94, {6-[(2,2-Dimethylpropyl)amino]-2-(pyrazolo[5,1-b][1,3]thiazol-7-yl)pyrimidin-4-yl}(4-hydroxypiperidin-1-yl)methanone] are 1900 nM, 5400 nM and 2200 nM.
In the case of `COC(=O)NC1CCN(C(=O)c2cc(Oc3cccnc3)nc(-c3cnn4ccsc34)n2)CC1` [Example 156, Methyl (1-{[2-(pyrazolo[5,1-b][1,3]thiazol-7-yl)-6-(pyridin-3-yloxy)pyrimidin-4-yl]carbonyl}piperidin-4-yl)carbamate], the IC50 is 820 nM on JAK1 and above 10000 nM at JAK2.
`C[C@H](Nc1cc(C(=O)N2CCC(NC(=O)C3CCCC3)CC2)nc(-c2cnn3ccsc23)n1)C1CC1` [Example 166, N-1-[6-[(1S)-1-cyclopropylethyl]amino-2-(pyrazolo[5,1-b][1,3]thiazol-7-yl)pyrimidine-4-carbonyl]piperidin-4-ylcyclopentanecarboxamide]: the results for the IC50 on JAK1 and on JAK3 were 280 nM and 1300 nM, respectively.
